Patent US20130230571A1, “MACROCYCLIC LACTONE COMPOUNDS AND METHODS FOR THEIR USE” (Elixir Medical Corporation, priority 2010, published 2013)
Entries after “also recorded” stand apart in the source; their conditions may differ.

Columns and labels:
human smooth muscle cell = test: in vitro human smooth muscle cell culture testing, incorporated thymidine; assay type: cell-based; settings: exposure for 8 hours; human smooth muscle cells; read-out: IC50 (incorporated thymidine, anti-proliferative)
Protocol: The amounts of incorporated thymidine for samples of myolimus of varying concentrations (0.0001, 0.001, 0.01, 0.1, and 1 μM) and of rapamycin of varying concentrations (0.0001, 0.001, 0.01, 0.1, and 1 μM) were measured after exposure for 8 hours (as shown in FIG. 1). The IC50 of both myolimus and rapamycin was 0.1 nM indicating potent anti-proliferative properties.

MMP-9 = MMP-9 production by LPS-activated macrophages, ELISA; assay type: cell-based; settings: 10 nM
Protocol: (§1) In cell culture studies, macrophages were activated to secrete cytokines such as MMP-9 and MCP-1 by treating the cells to E Coli lippopolysaccharide (LPS). Inhibition of these cytokines upon treatment of the activated macrophages with myolimus and rapamycin with 10 nM concentration was tested using ELISA assay.

MCP-1 = MCP-1 production by LPS-activated macrophages, ELISA; assay type: cell-based; settings: 10 nM
Protocol: as §1

[1] = cited from earlier work

Compound	IC50 (human smooth muscle cell)	production of the cytokine MMP-9 (MMP-9)	production of the cytokine MMP-9 (MMP-9; listed as Myolimus)	production of cytokine MCP-1 (MCP-1)	production of cytokine MCP-1 (MCP-1; listed as Myolimus)	solubility in water [1]	production of the cytokine MMP-9 (MMP-9; listed as Rapamycin)
CO[C@H]1C[C@@H]2CC[C@@H](C)[C@@](O)(O2)C(=O)C(=O)N2CCCC[C@H]2C(=O)O[C@H]([C@H](C)C[C@@H]2CC[C@@H](O)[C@H](OC)C2)CC[C@H](C)/C=C(\C)[C@@H](O)[C@@H](OC)C(=O)[C@H](C)C[C@H](C)/C=C/C=C/C=C/1C [myolimus, 32-deoxo-rapamycin]	0.1 nM	inhibiting production of MMP-9	reduced the production	inhibiting the production	reduced the production	–	–
CO[C@H]1C[C@@H]2CC[C@@H](C)[C@@](O)(O2)C(=O)C(=O)N2CCCC[C@H]2C(=O)O[C@H]([C@H](C)C[C@@H]2CC[C@@H](O)[C@H](OC)C2)CC(=O)[C@H](C)/C=C(\C)[C@@H](O)[C@@H](OC)C(=O)[C@H](C)C[C@H](C)/C=C/C=C/C=C/1C [rapamycin, Rapamycin]	0.1 nM	increased the production of MMP-9	–	did not impact the production of MCP-1; also recorded: did not have any impact	–	very slightly soluble in water	increased the production
